Measured values taken from ChEMBL document CHEMBL1795278, “Synthesis and evaluation of fluorescent heterocyclic aminoadamantanes as multifunctional neuroprotective agents” (Bioorg Med Chem, 2011).

Columns and labels:
[1] = tested on: Radical scavenging activity; experiment: Antioxidant activity assessed as inhibition of DPPH free radicals at 1 mM after 30 mins by UV-visible spectrophotometer analysis relative to control; type: functional
[2] = Antioxidant activity assessed as inhibition of ABTS free radicals at 1 mM after 30 mins by UV-visible spectrophotometer analysis relative to control; type: functional
[3] = Antagonist activity at NMDAR in Sprague-Dawley rat brain synaptoneurosomes assessed as inhibition of NMDA/glycine-induced calcium flux at 100 uM after 5 mins using FURA-2AM by fluorescent spectrometer analysis relative to control; type: functional
[4] = biological target: Nitric oxide synthase 1 (Rattus norvegicus, UniProt P29476); experiment: Inhibition of nNOS in Sprague-Dawley rat brain homogenates assessed as conversion of oxyhemoglobin to methemoglobin measured for 10 mins by UV-visible spectrophotometer analysis
Nitric oxide synthase 1, sequence (P29476 whole entry): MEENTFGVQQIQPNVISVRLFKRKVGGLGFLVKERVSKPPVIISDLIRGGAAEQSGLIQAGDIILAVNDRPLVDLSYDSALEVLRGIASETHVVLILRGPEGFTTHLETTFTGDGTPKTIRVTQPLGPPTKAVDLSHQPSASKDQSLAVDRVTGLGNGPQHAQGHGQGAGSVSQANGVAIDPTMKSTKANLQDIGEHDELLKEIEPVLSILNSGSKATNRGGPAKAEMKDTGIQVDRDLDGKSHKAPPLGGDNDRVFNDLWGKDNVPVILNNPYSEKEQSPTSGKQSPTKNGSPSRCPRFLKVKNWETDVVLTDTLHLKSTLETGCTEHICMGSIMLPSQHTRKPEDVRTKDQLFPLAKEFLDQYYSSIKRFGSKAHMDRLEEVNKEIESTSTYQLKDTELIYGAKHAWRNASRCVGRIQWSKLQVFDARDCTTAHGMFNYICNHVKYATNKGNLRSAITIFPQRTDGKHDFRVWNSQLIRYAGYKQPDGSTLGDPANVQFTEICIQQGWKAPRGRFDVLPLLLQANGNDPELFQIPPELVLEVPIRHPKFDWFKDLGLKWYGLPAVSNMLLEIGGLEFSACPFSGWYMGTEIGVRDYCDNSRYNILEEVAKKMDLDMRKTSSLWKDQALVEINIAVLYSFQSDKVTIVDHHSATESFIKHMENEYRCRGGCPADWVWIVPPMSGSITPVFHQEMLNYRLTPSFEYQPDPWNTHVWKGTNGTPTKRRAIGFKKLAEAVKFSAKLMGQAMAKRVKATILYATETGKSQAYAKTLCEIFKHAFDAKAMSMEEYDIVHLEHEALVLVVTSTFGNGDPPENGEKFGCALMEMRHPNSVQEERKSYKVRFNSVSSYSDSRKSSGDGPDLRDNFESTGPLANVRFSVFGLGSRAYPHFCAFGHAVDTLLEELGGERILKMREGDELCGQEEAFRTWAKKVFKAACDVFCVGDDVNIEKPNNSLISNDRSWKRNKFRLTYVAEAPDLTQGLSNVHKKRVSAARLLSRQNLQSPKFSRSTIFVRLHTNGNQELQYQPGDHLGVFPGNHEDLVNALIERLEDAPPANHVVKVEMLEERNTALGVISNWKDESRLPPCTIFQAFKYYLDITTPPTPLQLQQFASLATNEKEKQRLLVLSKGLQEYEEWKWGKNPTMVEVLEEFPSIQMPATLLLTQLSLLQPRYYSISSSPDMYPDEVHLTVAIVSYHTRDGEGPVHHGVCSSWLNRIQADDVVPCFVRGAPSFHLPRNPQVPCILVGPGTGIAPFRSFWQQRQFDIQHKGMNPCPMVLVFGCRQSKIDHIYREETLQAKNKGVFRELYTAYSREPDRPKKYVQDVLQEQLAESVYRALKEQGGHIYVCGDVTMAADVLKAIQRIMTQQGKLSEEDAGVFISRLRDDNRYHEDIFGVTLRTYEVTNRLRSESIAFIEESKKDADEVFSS

[5] = Antioxidant activity assessed as inhibition of ABTS free radicals at 0.1 mM after 30 mins by UV-visible spectrophotometer analysis relative to control; type: functional
[6] = Antioxidant activity assessed as inhibition of ABTS free radicals at 0.01 mM after 30 mins by UV-visible spectrophotometer analysis relative to control; type: functional
[7] = Antagonist activity at VGCC in Sprague-Dawley rat brain synaptoneurosomes assessed as inhibition of Kcl-induced calcium flux at 100 uM after 5 mins using FURA-2AM by fluorescent spectrometer analysis relative to control; type: functional
[8] = tested on: Radical scavenging activity; experiment: Antioxidant activity assessed as inhibition of DPPH free radicals at 0.01 mM after 30 mins by UV-visible spectrophotometer analysis relative to control; type: functional
[9] = tested on: Radical scavenging activity; experiment: Antioxidant activity assessed as inhibition of DPPH free radicals at 0.1 mM after 30 mins by UV-visible spectrophotometer analysis relative to control; type: functional
[10] = tested on: Radical scavenging activity; experiment: Antioxidant activity assessed as inhibition of DPPH free radicals after 30 mins by UV-visible spectrophotometer analysis relative to control; type: functional
[11] = Antioxidant activity assessed as inhibition of ABTS free radicals after 30 mins by UV-visible spectrophotometer analysis relative to control; type: functional

Row | Compound | inhibition [1] [%] | inhibition [2] [%] | inhibition (INH) [3] [%] | IC50 ([4]; read-out: IC50) [nM] | inhibition [5] [%] | inhibition [6] [%] | inhibition (INH) [7] [%] | inhibition [8] [%] | inhibition [9] [%] | inhibition [10] | inhibition [11] | IC50 [4]
1 | CN(C)c1cccc2c(S(=O)(=O)NC34CC5CC(CC(C5)C3)C4)cccc12 | 40.9 | 41.6 | 78.05 | 410 | 22.4 | 8.11 | 44.77 | 38 | 38.1 | Dose-dependent effect | Dose-dependent effect | 
2 | N#Cc1c2ccccc2cn1C12CC3CC(CC(C3)C1)C2 | 32.7 | 13.5 | 84.01 |  | 13.2 | 9.98 | 54.24 | 27.4 | 27.8 | Dose-dependent effect | Dose-dependent effect | 
3 | NC12CC3CC(CC(C3)C1)C2 [AMANTADINE] | 2.32 | 1.62 | 83.1 |  | 1.34 | 0.49 | 86.13 | 0.55 | 2.11 | Dose-dependent effect | Dose-dependent effect | Not Active
4 | O=C(NC12CC3CC(CC(C3)C1)C2)c1n[nH]c2ccccc12 | 32.9 | 39.9 | 83 |  | 21.7 | 12.4 | 93.43 | 28.7 | 30.1 | Dose-dependent effect | Dose-dependent effect | 
5 | COCCOC(=O)C1=C(C)NC(C)=C(C(=O)OC(C)C)C1c1cccc([N+](=O)[O-])c1 (stereo not given) [NIMODIPINE] |  |  |  |  |  |  | 12.29 |  |  |  |  | 
6 | Cc1c(C)c2c(c(C)c1O)CCC(C)(C(=O)O)O2 (stereo not given) | 95.1 | 88.5 |  |  | 62.8 | 47.6 |  | 45.8 | 74.6 | Dose-dependent effect | Dose-dependent effect | 
7 | CNc1ccccc1C(=O)NC12CC3CC(CC(C3)C1)C2 | 44 | 50.5 | 96.66 |  | 24.3 | 10.7 | 93.2 | 42.7 | 42.8 | Dose-dependent effect | Dose-dependent effect | 
8 | c1ccc(CNC23OC4C5C6CC(C7C6C4C72)C53)cc1 (stereo not given) | 9.98 | 8.88 | 86.63 |  | 7.33 | 2.44 | 70.12 | 0.2 | 5.99 | Dose-dependent effect | Dose-dependent effect | Not Active
9 | O=[N+]([O-])c1ccc(NC23CC4CC(CC(C4)C2)C3)c([N+](=O)[O-])c1 | 37 | 15.7 | 80.75 |  | 9.73 | 8.21 | 89.14 | 32.1 | 36.8 | Dose-dependent effect | Dose-dependent effect | Not Active
10 | N=C(N)NN [PIMAGEDINE] |  |  |  | 19400 |  |  |  |  |  |  |  | 
11 | O=C(NC12CC3CC(CC(C3)C1)C2)c1cc2ccccc2oc1=O | 91.7 | 93.3 | 79.71 | 850 | 91.8 | 87.5 | 75.35 | 31.8 | 69.8 | Dose-dependent effect | Dose-dependent effect | 
